This note sets out measurements from patent US11168102B1, “Bicyclic heteroaryl compounds and uses thereof” (Revolution Medicines, Inc., priority 2019, dated 2021).

As a reminder, the IC50 is the midpoint of a concentration-inhibition curve.

Structures are written as SMILES. Where two headings read alike, the source gives them in different places.

The subject of the assay is cellular pERK in PC-9 cells (EGFR Ex19Del). The experiment in a line: Potency assay: pERK (AlphaLISA SureFire Ultra p-ERK1/2) in PC-9 cells. It counts as cell-based. As to conditions: PC-9 cells (EGFR Ex19Del), 1 hour incubation, AlphaLISA SureFire Ultra p-ERK1/2, read-out: SOS1 pERK IC50.

For the compound `C[C@@H](Nc1ncnc2c1cc(C1(C)CCS(=O)(=O)CC1)c(=O)n2C)c1cccc(C(F)F)c1F` [Example 37, 4-(4-{[(1R)-1-[3-(difluoromethyl)-2-fluorophenyl]ethyl]amino}-8-methyl-7-oxo-7H,8H-pyrido[2,3-d]pyrimidin-6-yl)-4-methyl-1λ^6-thiane-1,1-dione], the IC50 (Homo sapiens, PC-9, 1 h) stood at 49.9 nM. Consider `C[C@@H](Nc1ncnc2c1cc(C13CCOCC1C3)c(=O)n2C)c1cccc(C(F)F)c1F` (single isomer, unassigned) [Example 54-2], for which the IC50 came out at 82.8 nM. As to `COC1(c2cc3c(N[C@H](C)c4cccc(C(F)F)c4F)ncnc3n(C)c2=O)CCS(=O)(=NC2CC2)CC1` (single isomer, unassigned) [Example 69], the IC50 was 94 nM. As to `C[C@@H](Nc1ncnc2c1cc(C(=O)N1C3CCC1CN(C)C3)c(=O)n2C)c1cccc(C(F)F)c1F` [Example 26-32], the IC50 (Homo sapiens, PC-9, 1 h) was determined as 216 nM. Same read-out and setting: the same measure for `C[C@@H](Nc1ncnc2c1cc(C1CCS(=O)(=O)CC1)c(=O)n2C)c1ccc(-c2ccccc2CN)s1` [Example 33-18]: 53.2 nM; for `C[C@@H](Nc1ncnc2c1cc(C1(C#N)CC3(C1)CS(=O)(=O)C3)c(=O)n2C)c1cccc(C(F)F)c1F` [Example 36-6]: 33.3 nM; for `C[C@@H](Nc1ncnc2c1cc(C1(F)CC3(C1)CS(=O)(=O)C3)c(=O)n2C)c1cccc(C(F)F)c1F` [Example 29-8]: 53.4 nM. Take `C[C@@H](Nc1ncnc2c1cc(C(=O)N1CCCC13CCOCC3)c(=O)n2C)c1cccc(C(F)F)c1F` [Example 26-42]: for the setting “Homo sapiens, PC-9, 1 h”, the IC50 is 194 nM. `CC1CC(c2cc3c(N[C@H](C)c4cccc(C(F)F)c4F)ncnc3n(C)c2=O)CCS1(=O)=O` (stereo partly shown) [Example 33-9]: the IC50 stood at 270 nM.

Take `C[C@@H](Nc1ncnc2c1cc(C(=O)N1Cc3cccnc3C1)c(=O)n2C)c1cccc(C(F)F)c1F` [Example 26-28]: the IC50 (Homo sapiens, PC-9, 1 h) came out at 766 nM. As to `COC1(c2cc3c(N[C@H](C)c4cccc(C(F)F)c4F)ncnc3n(C)c2=O)CCP(C)(=O)CC1` (stereo partly shown) [Example 32-45], the IC50 (Homo sapiens, PC-9, 1 h) is 249 nM. In the case of `C[C@@H](Nc1ncnc2c1cc(C1=CCCNC1)c(=O)n2C)c1cccc(C(F)F)c1F` [Example 1-4], the IC50 (Homo sapiens, PC-9, 1 h) turned out to be 43.1 nM. On to `CO[C@]1(c2cc3c(N[C@H](C)c4cccc(C(F)F)c4F)ncnc3n(C)c2=O)C[C@H](C)N(C(C)=O)C1` [Example 32-49], for which the IC50 (Homo sapiens, PC-9, 1 h) turned out to be 102 nM. Regarding `C[C@@H](Nc1ncnc2c1cc(C1CCNCC1)c(=O)n2C)c1cccc(C(F)F)c1F` [Example 1-28], where the note is “Homo sapiens, PC-9, 1 h”, the IC50 was determined as 125 nM.

`C[C@@H](Nc1ncnc2c1cc(C(=O)N1CCCC13CCOC3)c(=O)n2C)c1cccc(C(F)F)c1F` (stereo partly shown) [Example 26-34]: the half-maximal inhibitory concentration (IC50) (Homo sapiens, PC-9, 1 h) came out at 122 nM. As for `C[C@@H](Nc1ncnc2c1cc(C1(F)CN(S(C)(=O)=O)C1)c(=O)n2C)c1cccc(C(F)F)c1F` [Example 29-6], the IC50 (Homo sapiens, PC-9, 1 h) was 470 nM.

In the case of `CO[C@]1(c2cc3c(N[C@H](C)c4cccc(C(F)F)c4F)ncnc3n(C)c2=O)C[C@@H](C)N(C(C)=O)C1` [Example 32-47], where the note is “Homo sapiens, PC-9, 1 h”, the IC50 stood at 77.6 nM. Take `CC(=O)N1CCC(C#N)(c2cc3c(N[C@H](C)c4cccc(C(F)F)c4F)ncnc3n(C)c2=O)CC1` [Example 36, 1-acetyl-4-(4-{[(1R)-1-[3-(difluoromethyl)-2-fluorophenyl]ethyl]amino}-8-methyl-7-oxo-7H,8H-pyrido[2,3-d]pyrimidin-6-yl)piperidine-4-carbonitrile]: the IC50 (Homo sapiens, PC-9, 1 h) amounted to 28.1 nM. As to `Cc1nc(N[C@H](C)c2cc(N)cc(C(F)(F)F)c2)c2cc(C3=CCOCC3)c(=O)n(C)c2n1` [Example 7, (R)-4-((1-(3-amino-5-(trifluoromethyl)phenyl)ethyl)amino)-6-(3,6-dihydro-2H-pyran-4-yl)-2,8-dimethylpyrido[2,3-d]pyrimidin-7(8H)-one], the IC50 (Homo sapiens, PC-9, 1 h) was 72.4 nM. Turning to `CC(=O)N1CCC(c2cc3c(N[C@H](C)c4cc(C(F)F)c5cc[nH]c5c4)ncnc3n(C)c2=O)CC1` [Example 48, 6-(1-acetyl-4-piperidyl)-4-[[(1R)-1-[4-(difluoromethyl)-1H-indol-6-yl]ethyl]amino]-8-methyl-pyrido[2,3-d]pyrimidin-7-one], under “Homo sapiens, PC-9, 1 h”, the IC50 stood at 1520 nM.

Take `C[C@@H](Nc1ncnc2c1cc(-c1cccnc1)c(=O)n2C)c1cccc(C(F)F)c1F` [Example 21-15]: where the note is “Homo sapiens, PC-9, 1 h”, the IC50 came to 212 nM.

As to `CC(=O)N1CC=C(c2cc3c(N[C@H](C)c4cccc(C(F)(F)F)c4F)ncnc3n(C)c2=O)CC1` [Example 1-24], the IC50 (Homo sapiens, PC-9, 1 h) was 106 nM.

Turning to `C[C@@H](Nc1ncnc2c1cc(C1CCS(=O)(=O)CC1)c(=O)n2C)c1ccc(-c2ccccc2CCN)s1` [Example 33-19], the IC50 (Homo sapiens, PC-9, 1 h) stood at 182 nM.

Consider `C[C@@H](Nc1ncnc2c1cc(C(=O)N1CCOCC13CCOC3)c(=O)n2C)c1cccc(C(F)F)c1F` (stereo partly shown) [Example 26-47], for which the IC50 (Homo sapiens, PC-9, 1 h) was found to be 585 nM. On to `CC(=O)N1CCC(c2cc3c(N[C@H](C)c4cccc(C(F)(F)C5CN(C6CC6)CCO5)c4F)ncnc3n(C)c2=O)CC1` (stereo partly drawn) [Example 55, 6-(1-acetyl-4-piperidyl)-4-[[(1R)-1-[3-[(4-cyclopropylmorpholin-2-yl)-difluoro-methyl]-2-fluoro-phenyl]ethyl]amino]-8-methyl-pyrido[2,3-d]pyrimidin-7-one], for which, where the note is “Homo sapiens, PC-9, 1 h”, the IC50 was 109 nM.

Consider `COC1(c2cc3c(N[C@H](C)c4ccnc(C(F)F)c4F)ncnc3n(C)c2=O)CCN(C(C)=O)CC1` [Example 71, 6-(1-acetyl-4-methoxy-4-piperidyl)-4-[[(1R)-1-[2-(difluoromethyl)-3-fluoro-4-pyridyl]ethyl]amino]-8-methyl-pyrido-[2,3-d]pyrimidin-7-one], for which, where the note is “Homo sapiens, PC-9, 1 h”, the IC50 was found to be 528 nM.

With `CC(=O)N1CCC(O)(c2cc3c(N[C@H](C)c4cccc(C(F)F)c4F)ncnc3n(C)c2=O)CC1` [Example 28-8], the IC50 (Homo sapiens, PC-9, 1 h) worked out at 32.6 nM. `COC1(c2cc3c(N[C@H](C)c4cccc(C(F)F)c4F)ncnc3n(C)c2=O)CCS(=O)(=O)C(C)C1` (stereo partly shown) [Example 32-64]: the IC50 is 154 nM. With `C[C@@H](Nc1ncnc2c1cc(C1=CC[P@](C)(=O)CC1)c(=O)n2C)c1cccc(C(F)F)c1F` [Example 1-32], where the note is “Homo sapiens, PC-9, 1 h”, the IC50 is 93.1 nM. Same read-out and setting: the same measure for `C[C@@H](Nc1ncnc2c1cc(C1(F)CCS(=O)(=NC3CC3)CC1)c(=O)n2C)c1cccc(C(F)F)c1F` (stereo partly drawn) [Example 56, 6-((1R,4r)-1-(cyclopropylimino)-4-fluoro-1-oxidohexahydro-1λ^6-thiopyran-4-yl)-4-(((R)-1-(3-(difluoromethyl)-2-fluorophenyl)ethyl)amino)-8-methylpyrido[2,3-d]pyrimidin-7(8H)-one]: 57.2 nM; for `COC1(c2cc3c(N[C@H](C)c4cccc(C(F)F)c4F)ncnc3n(C)c2=O)CCS(=N)(=O)CC1` (single isomer, unassigned) [Example 49]: 75.5 nM; for `C[C@@H](Nc1ncnc2c1cc(C1CC[S+]([O-])CC1)c(=O)n2C)c1cccc(C(F)F)c1F` (stereo partly drawn) [Example 25, (R)-4-((1-(3-(difluoromethyl)-2-fluorophenyl)ethyl)amino)-8-methyl-6-(1-oxidotetrahydro-2H-thiopyran-4-yl)pyrido[2,3-d]pyrimidin-7(8H)-one]: 122 nM. Regarding `COCCN1CCN(C(=O)c2cc3c(N[C@H](C)c4cccc(C(F)F)c4F)ncnc3n(C)c2=O)CC1` [Example 26-48], where the note is “Homo sapiens, PC-9, 1 h”, the IC50 stood at 220 nM. On to `COC1(c2cc3c(N[C@H](C)c4cccc(C(F)F)c4F)ncnc3n(C)c2=O)CCC(S(C)(=O)=O)CC1` (stereo partly shown) [Example 32-59], for which the IC50 (Homo sapiens, PC-9, 1 h) came to 20.3 nM.
